Where a name gives a salt, the structure may show the parent alone. A value given as a limit tells only on which side of the number the result lay.

The target of this assay is T1, HDAC6 (Homo sapiens, UniProt Q9UBN7).
T1 sequence (Q9UBN7 1-1215): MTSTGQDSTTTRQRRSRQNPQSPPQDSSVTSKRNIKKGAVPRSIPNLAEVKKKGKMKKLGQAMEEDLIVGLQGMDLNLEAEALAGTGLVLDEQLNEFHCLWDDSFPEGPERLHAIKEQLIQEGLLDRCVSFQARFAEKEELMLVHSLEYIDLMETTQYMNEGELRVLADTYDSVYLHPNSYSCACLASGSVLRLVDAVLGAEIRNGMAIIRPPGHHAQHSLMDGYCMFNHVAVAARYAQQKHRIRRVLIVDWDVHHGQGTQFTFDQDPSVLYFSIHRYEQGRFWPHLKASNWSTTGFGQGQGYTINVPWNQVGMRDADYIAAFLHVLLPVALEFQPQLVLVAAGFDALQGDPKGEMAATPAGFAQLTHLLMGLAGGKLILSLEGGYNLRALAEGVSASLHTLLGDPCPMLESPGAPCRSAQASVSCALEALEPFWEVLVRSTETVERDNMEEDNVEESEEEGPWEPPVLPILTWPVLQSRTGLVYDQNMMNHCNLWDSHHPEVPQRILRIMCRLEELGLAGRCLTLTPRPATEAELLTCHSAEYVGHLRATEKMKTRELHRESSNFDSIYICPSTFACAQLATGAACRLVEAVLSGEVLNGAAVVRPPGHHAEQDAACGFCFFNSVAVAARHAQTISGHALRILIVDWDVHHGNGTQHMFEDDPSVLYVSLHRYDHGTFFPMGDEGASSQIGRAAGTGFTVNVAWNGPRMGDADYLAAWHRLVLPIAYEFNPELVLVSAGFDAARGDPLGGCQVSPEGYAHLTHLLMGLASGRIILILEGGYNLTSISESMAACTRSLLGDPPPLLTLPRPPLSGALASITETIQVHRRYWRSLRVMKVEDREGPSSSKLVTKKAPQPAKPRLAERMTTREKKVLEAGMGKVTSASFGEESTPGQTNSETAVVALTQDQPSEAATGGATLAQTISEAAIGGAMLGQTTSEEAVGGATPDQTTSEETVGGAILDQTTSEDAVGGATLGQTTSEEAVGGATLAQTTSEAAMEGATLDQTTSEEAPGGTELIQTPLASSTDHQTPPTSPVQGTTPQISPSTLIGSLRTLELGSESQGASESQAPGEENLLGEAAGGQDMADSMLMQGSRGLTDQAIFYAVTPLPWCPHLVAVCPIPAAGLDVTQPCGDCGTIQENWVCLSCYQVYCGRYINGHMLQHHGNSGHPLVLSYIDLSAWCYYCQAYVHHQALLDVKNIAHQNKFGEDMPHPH
Briefly: HDAC assay (fluorogenic substrate), HDAC6. It is filed as biochemical. The procedure:
Base Reaction buffer: 50 mM Tris-HCl, pH8.0, 137 mM NaCl, 2.7 mM KCl, and 1 mM MgCl2. Add fresh: 1 mg/ml BSA, 1% DMSO
Fluorogenic HDAC General Substrate: 50 μM, Arg-His-Lys-Lys(Ac)
• 1. Deliver 2× enzyme in wells of reaction plate except No Enzyme control wells. Add buffer in No En wells. • 2. Deliver compounds in 100% DMSO into the enzyme mixture by Acoustic technology (Echo550; nanoliter range). Spin down and pre-incubation. • 3. Deliver 2× Substrate Mixture (Fluorogenic HDAC Substrate and co-factor if applicable) in all reaction wells to initiate the reaction. Spin and shake. • 4. Incubate for 30 min for Class 2A, 1 hr for HDAC1, 2, 3, and 6, and 2 hr for the rest of HDACs and SIRTs at 30° C. with seal. Development Step: • 5. Add Developer with Trichostatin A (or Nicotinamide for SIRTs) to stop the reaction and to generate fluorescent color. • 6. Kinetic measurement for 1.5 hr with Envision with 15 min interval. (Ex/Em=360/460 nm) • 7. Take endpoint reading for analysis after the development reaches plateau.
The compound `FC(F)c1nnc(-c2cnc(Nc3cc(-c4cccnc4)c4nc[nH]c4c3)nc2)o1` [Example 3, N-(5-(5-(difluoromethyl)-1,3,4-oxadiazol-2-yl)pyrimidin-2-yl)-4-(pyridin-3-yl)-1H-benzo[d]imidazol-6-amine hydrochloride] registered an inhibition at 10 µM above 80%. In the case of `Fc1cc(I)ccc1-c1cc(Nc2ncc(-c3nnc(C(F)F)o3)cn2)cc2[nH]cnc12` [Example 42, N-(5-(5-(difluoromethyl)-1,3,4-oxadiazol-2-yl)pyrimidin-2-yl)-4-(2-fluoro-4-iodophenyl)-1H-benzo[d]imidazol-6-amine], the inhibition at 10 µM was above 90%.

Turning to `FC(F)c1nnc(-c2cnc(Nc3cc(Br)c4nc[nH]c4c3)nc2)o1` [Example 2, 4-bromo-N-(5-(5-(difluoromethyl)-1,3,4-oxadiazol-2-yl)pyrimidin-2-yl)-1H-benzo[d]imidazol-6-amine], the inhibition at 10 µM is above 90%. The figure for `OCCn1cnc2c(-c3ccccc3)cc(Nc3ncc(-c4nnc(C(F)F)o4)cn3)cc21` [Example 14, 2-(6-((5-(5-(difluoromethyl)-1,3,4-oxadiazol-2-yl)pyrimidin-2-yl)amino)-4-phenyl-1H-benzo[d]imidazol-1-yl)ethan-1-ol] is above 90%. The figure for `CN(C)C(=O)Cn1cnc2c(-c3ccccc3)cc(Nc3ncc(-c4nnc(C(F)F)o4)cn3)cc21` [Example 25, 2-(6-((5-(5-(difluoromethyl)-1,3,4-oxadiazol-2-yl)pyrimidin-2-yl)amino)-4-phenyl-1H-benzo[d]imidazol-1-yl)-N,N-dimethylacetamide] is above 90%. Compound `OCCn1cnc2c(-c3ccn[nH]3)cc(Nc3ncc(-c4nnc(C(F)F)o4)cn3)cc21` [Example 37, 2-(6-((5-(5-(difluoromethyl)-1,3,4-oxadiazol-2-yl)pyrimidin-2-yl)amino)-4-(1H-pyrazol-5-yl)-1H-benzo[d]imidazol-1-yl)ethan-1-ol] returned an inhibition at 10 µM above 90%. The figure for `Fc1c(Nc2ncc(-c3nnc(C(F)F)o3)cn2)cc(-c2ccccc2)c2nc[nH]c12` [Example 39, N-(5-(5-(difluoromethyl)-1,3,4-oxadiazol-2-yl)pyrimidin-2-yl)-7-fluoro-4-phenyl-1H-benzo[d]imidazol-6-amine] is above 90%. To `FC(F)c1nnc(-c2cnc(Nc3ccc4nc[nH]c4c3)nc2)o1` [Example 19, N-(5-(5-(difluoromethyl)-1,3,4-oxadiazol-2-yl)pyrimidin-2-yl)-1H-benzo[d]imidazol-6-amine] belongs above 90%.

Compound `Cn1cnc2c(-c3ccccc3)cc(Nc3ncc(-c4nnc(C(F)F)o4)cn3)cc21` [Example 4, N-(5-(5-(difluoromethyl)-1,3,4-oxadiazol-2-yl)pyrimidin-2-yl)-1-methyl-4-phenyl-1H-benzo[d]imidazol-6-amine] returned an inhibition at 10 µM above 70%. The figure for `OCCn1cnc2c(-c3ccccn3)cc(Nc3ncc(-c4nnc(C(F)F)o4)cn3)cc21` [Example 21, 2-(6-((5-(5-(difluoromethyl)-1,3,4-oxadiazol-2-yl)pyrimidin-2-yl)amino)-4-(pyridin-2-yl)-1H-benzo[d]imidazol-1-yl)ethan-1-ol] is above 90%; for `Cn1nccc1-c1cc(Nc2ncc(-c3nnc(C(F)F)o3)cn2)cc2[nH]cnc12` [Example 40, N-(5-(5-(difluoromethyl)-1,3,4-oxadiazol-2-yl)pyrimidin-2-yl)-4-(1-methyl-1H-pyrazol-5-yl)-1H-benzo[d]imidazol-6-amine] it is above 90%; for `CC(CO)n1cnc2c(-c3ccccc3)cc(Nc3ncc(-c4nnc(C(F)F)o4)cn3)cc21` (stereo not drawn) [Example 29, 2-(6-((5-(5-(difluoromethyl)-1,3,4-oxadiazol-2-yl)pyrimidin-2-yl)amino)-4-phenyl-1H-benzo[d]imidazol-1-yl)propan-1-ol] it is above 90%. To `Fc1cnc(-c2cc(Nc3ncc(-c4nnc(C(F)F)o4)cn3)cc3[nH]cnc23)c(F)c1` [Example 22, N-(5-(5-(difluoromethyl)-1,3,4-oxadiazol-2-yl)pyrimidin-2-yl)-4-(3,5-difluoropyridin-2-yl)-1H-benzo[d]imidazol-6-amine] belongs above 90%. The figure for `FC(F)c1nnc(-c2cnc(Nc3cc(C(F)(F)F)c4nc[nH]c4c3)nc2)o1` [Example 23, N-(5-(5-(difluoromethyl)-1,3,4-oxadiazol-2-yl)pyrimidin-2-yl)-4-(trifluoromethyl)-1H-benzo[d]imidazol-6-amine] is above 90%; for `C=CCn1cnc2c(-c3ccccc3)cc(Nc3ncc(-c4nnc(C(F)F)o4)cn3)cc21` [Example 12, 1-allyl-N-(5-(5-(difluoromethyl)-1,3,4-oxadiazol-2-yl)pyrimidin-2-yl)-4-phenyl-1H-benzo[d]imidazol-6-amine] it is above 90%; for `Fc1ccc(-c2cc(Nc3ncc(-c4nnc(C(F)F)o4)cn3)cc3[nH]cnc23)c(F)c1` [Example 9, N-(5-(5-(difluoromethyl)-1,3,4-oxadiazol-2-yl)pyrimidin-2-yl)-4-(2,4-difluorophenyl)-1H-benzo[d]imidazol-6-amine] it is above 90%.

For `FC(F)c1nnc(-c2cnc(Nc3cc(-c4ccncc4)c4nc[nH]c4c3)nc2)o1` [Example 35, N-(5-(5-(difluoromethyl)-1,3,4-oxadiazol-2-yl)pyrimidin-2-yl)-4-(pyridin-4-yl)-1H-benzo[d]imidazol-6-amine], the inhibition at 10 µM was above 90%. Take `FC(F)c1nnc(-c2cnc(Nc3cc(-c4ccc(CN5CCOCC5)cc4)c4nc[nH]c4c3)nc2)o1` [Example 18, N-(5-(5-(difluoromethyl)-1,3,4-oxadiazol-2-yl)pyrimidin-2-yl)-4-(4-(morpholinomethyl)phenyl)-1H-benzo[d]imidazol-6-amine]: the inhibition at 10 µM is above 90%.

The compound `FC(F)c1nnc(-c2cnc(Nc3cc(-c4ccc(N5CCOCC5)cc4)c4nc[nH]c4c3)nc2)o1` [Example 17, N-(5-(5-(difluoromethyl)-1,3,4-oxadiazol-2-yl)pyrimidin-2-yl)-4-(4-morpholinophenyl)-1H-benzo[d]imidazol-6-amine] returned an inhibition at 10 µM above 90%. Regarding `FC(F)c1nnc(-c2cnc(Nc3cc(-c4ccn[nH]4)c4nc[nH]c4c3)nc2)o1` [Example 36, N-(5-(5-(difluoromethyl)-1,3,4-oxadiazol-2-yl)pyrimidin-2-yl)-4-(1H-pyrazol-5-yl)-1H-benzo[d]imidazol-6-amine], the inhibition at 10 µM is above 90%. Consider `FC(F)c1nnc(-c2cnc(Nc3cc(-c4ccccc4)c4ncn(CC(F)(F)F)c4c3)nc2)o1` [Example 48, N-(5-(5-(difluoromethyl)-1,3,4-oxadiazol-2-yl)pyrimidin-2-yl)-4-phenyl-1-(2,2,2-trifluoroethyl)-1H-benzo[d]imidazol-6-amine], for which the inhibition at 10 µM is above 90%.

The record behind these values is patent publication US11339150B2, “Benzimidazole compounds as HDAC6 inhibitors” (OnKure, Inc., priority 2019, dated 2022).
